Some results are limits rather than exact numbers.

Test [1] deals with PLP139-151-induced relapsing-remitting EAE. The test is described as follows: PLP139-151-induced relapsing-remitting EAE. On the set-up: species or system SJL mice. The following applies: mouse, in vivo. The procedure: Method: CSF-1R inhibitors as described herein were tested in mouse relapsing-remitting multiple sclerosis (MS) model. […] Female […] mice 6 weeks old were purchased from Harlan and maintained for 1 week prior to beginning the experiment. Mice were randomly assigned into groups of 10 animals (plus the additional mice per group to be used for histology), and primed with 50 μg PLP139-151/CFA on Day 0. On Day 16-20 post disease induction (onset of remission), the experimental compounds in dose groups 2 and 3 were administered daily via gavage to the groups for a period of 3 weeks (with the final treatment on ˜Day 37-41 post disease induction). On Day 10 post disease induction (disease onset) treatment of group 4 began, and continued to the same day as groups 2 and 3 (˜Day 37-41 post disease induction). After administration of the test compounds, the mice were followed until Day 45 to assess clinical disease, delayed type hypersensitivity (DTH), and various in vitro immunological assays. Histological signs of disease at various time points during the disease course were also assessed. […]

Test [2] relates to Osteoclast precursor cells. Put plainly: Osteoclast differentiation assay. In kind it is cell-based. On the procedure: Further, an osteoclast differentiation assay is used to assess the efficacy of Fms inhibitors for treating bone disease such as osteoarthritis. On day 0, Osteoclast Medium BulletKit (Lonza catalog # PT-8001, containing Media, FBS, L-Glutamine, PenStrep, RANKL, and M-CSF) media is thawed and the FBS, L-glutamine and PenStrep from the kit is added to 100 mL of Osteoclast Precursor Basal medium to provide the Osteoclast Precursor Growth Medium (OPGM). This is warmed to 37° C. Osteoclast precursor cells (Lonza catalog #2T-110) frozen in cryovial are warmed to 37° C. and transferred to a 50 mL conical tube. The cryovial is rinsed with OPGM and added dropwise to the conical tube of cells with swirling, then the volume is adjusted to 20-30 mL with addition of OPGM. The cells are centrifuged at 200×g for 15 minutes at room temperature and all but approximately 3 mL of supernatant is removed to a new conical tube. The cells are suspended in the remaining supernatant and the volume is adjusted to 10-15 mL with OPGM added dropwise with swirling. The cells are centrifuged at 200×g for 15 minutes at room temperature and all but approximately 1 mL of supernatant is removed. The cells are resuspended in the remaining supernatant, counted, and the volume adjusted with an appropriate amount of OPGM to provide approximately 1×10^5 cells/mL. A 0.1 mL aliquot of cells is added to each well of a 96-well plate. Compound to be tested is prepared in DMSO for plating at a high concentration of 2.5 mM, with 8 point 1:3 serial dilutions. A 1 μL aliquot of each compound dilution is added to a 96 well v-bottom polypropylene plate and 0.124 mL of OPGM is added to the compound. Then 50 μL of the compound in OPGM is added to the osteoclast precursor cells in 96-well plate (providing highest test concentration of 5 μM). RANKL (2 μg) from the BulletKit is reconstituted in 1 mL of OPGM, then vortexed and centrifuged briefly. A 792 μL aliquot of RANKL is added to 6 mL of OPGM and 50 μL is added to low control wells. Then 76.6 μL M-CSF ([…]) from the BulletKit is added to the remaining 5.8 mL of OPGM/RANKL solution (4×RANKL/M-CSF/OPGM). A 50 μL aliquot of this is added to the remaining wells, and the remainder is stored at 4° C. for later use. The plate is incubated at 37° C. for 6 days, then the remaining OPGM/RANKL/M-CSF solution is warmed to 37° C. The remaining approximately 198 μL is combined with 6 mL of OPGM. The media is aspirated from the osteoclast wells and 100 μL of RANKL/OPGM is added to the low controls. The remaining RANKL/OPGM is combined with the approximately 18.5 μL of remaining M-CSF. The remaining 4×RANKL/M-CSF/OPGM from day 0 is diluted to 1× and combined with the freshly prepared solution. A 0.1 mL aliquot of this is added to each osteoclast well and incubated for 37° C. for 1 day. The Acid Phosphatase kit (Cayman Chemical catalog #10008051) is warmed to room temperature. The assay buffer is diluted 5 mL with 45 mL of water. For each plate, two substrate tablets are dissolved in 4.5 mL of the assay buffer, mixing by vortex to break up the tablet. Stop solution is diluted 12 mL with 36 mL of water. In a tissue culture hood, 20 μL of each osteoclast well supernatant is transferred to a 96 well plate. A 30 μL aliquot of the substrate solution is added to each well and incubated at 37° C. for 20 minutes, then added […] stop solution to each well. The absorbance of each well is read at 405 nm on Safire plate reader. The absorbance reading is plotted vs. concentration to provide the IC50 for each compound.

Take `CCCCCCCCc1ccc(CCC(N)(CO)CO)cc1` [FTY-720]: the “clinical scores after discontinuation of therapy” value in test [1] was “rapid rebound of clinical scores”. Consider `FC(F)(F)c1ccncc1CNc1ccc(Cc2c[nH]c3ncc(Cl)cc23)cn1` [Compound P-2063, [5-(5-Chloro-1H-pyrrolo[2,3-b]pyridin-3-ylmethyl)-pyridin-2-yl]-(4-trifluoromethyl-pyridin-3-ylmethyl)-amine], for which the concentration for half-maximal inhibition (IC50) in test [2] was less than 100 nM. The same measure, in the same setting: the figure for `COc1ncc(CNc2ccc(Cc3c[nH]c4ncc(Cl)cc34)c(F)n2)cc1F` [Compound P-2165, [5-(5-Chloro-1H-pyrrolo[2,3-b]pyridin-3-ylmethyl)-6-fluoro-pyridin-2-yl]-(5-fluoro-6-methoxy-pyridin-3-ylmethyl)-amine] is less than 100 nM.

(Values after US10123998B2, “Kinase modulation, and indications therefor” (Plexxikon Inc., priority 2012, dated 2018).)
